Experimental data published in PubChem BioAssay AID248 (DTP/NCI, 2004).
Where “and” joins values, the source holds several entries; their conditions need not be identical. Equal values may be shown once. Toxic doses and inconclusive results are not listed. Rule as the data show it: active = T/C of 150% or more; inactive = T/C below 125%.

Tested on: L1210 leukemia ip in BDF1 mice, survival T/C
Test: NCI In Vivo Anticancer Drug Screen. Data for tumor model L1210 Leukemia (intraperitoneal) in B6D2F1 (BDF1) mice
Settings: endpoint: mean survival time, higher = longer survival
How it was run: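 Read-out is survival time, reported as the treated-group measurement over the vehicle-control measurement.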

[1] = dose: 100.0 mg/kg/injection, schedule: Q01DX009 (ip), vehicle: saline
[2] = dose: 100.0 mg/kg/injection, schedule: Q04DX003 (ip), vehicle: saline
[3] = dose: 200.0 mg/kg/injection, schedule: Q01DX009 (ip), vehicle: saline
[4] = dose: 200.0 mg/kg/injection, schedule: Q04DX003 (ip), vehicle: saline
[5] = dose: 400.0 mg/kg/injection, schedule: Q01DX009 (ip), vehicle: saline
[6] = dose: 400.0 mg/kg/injection, schedule: Q04DX003 (ip), vehicle: saline
[7] = dose: 100.0 mg/kg/injection, schedule: Q01DX009 (ip), vehicle: saline with Tween-80
[8] = dose: 100.0 mg/kg/injection, schedule: Q04DX003 (ip), vehicle: saline with Tween-80
[9] = dose: 200.0 mg/kg/injection, schedule: Q04DX003 (ip), vehicle: saline with Tween-80
[10] = dose: 100.0 mg/kg/injection, schedule: Q01DX009 (ip), vehicle: Klucel (hydroxypropylcellulose) (HPC)
[11] = dose: 100.0 mg/kg/injection, schedule: Q04DX003 (ip), vehicle: Klucel (hydroxypropylcellulose) (HPC)
[12] = dose: 200.0 mg/kg/injection, schedule: Q04DX003 (ip), vehicle: Klucel (hydroxypropylcellulose) (HPC)
[13] = dose: 400.0 mg/kg/injection, schedule: Q04DX003 (ip), vehicle: Klucel (hydroxypropylcellulose) (HPC)
[14] = dose: 100.0 mg/kg/injection, schedule: Q01DX001 (ip), vehicle: Klucel (hydroxypropylcellulose) (HPC)
[15] = dose: 200.0 mg/kg/injection, schedule: Q01DX009 (ip), vehicle: Klucel (hydroxypropylcellulose) (HPC)
[16] = dose: 400.0 mg/kg/injection, schedule: Q01DX009 (ip), vehicle: Klucel (hydroxypropylcellulose) (HPC)
[17] = dose: 400.0 mg/kg/injection, schedule: Q04DX003 (ip), vehicle: saline with Tween-80
[18] = dose: 100.0 mg/kg/injection, schedule: Q04DX002 (ip), vehicle: saline
[19] = dose: 200.0 mg/kg/injection, schedule: Q04DX002 (ip), vehicle: saline

Measured: T/C

CCCCCCCC(=O)[O][Hg][c]1ccccc1
inactive: dose: 9.38 mg/kg/injection, schedule: Q01DX001 (ip), vehicle: saline 98 % of control | dose: 18.75 mg/kg/injection, schedule: Q01DX001 (ip), vehicle: saline 88 % of control | dose: 37.5 mg/kg/injection, schedule: Q01DX001 (ip), vehicle: saline 102 % of control

O=S(=O)(O)CCN1CCN(CCO)CC1
inactive: [1] 96 % of control | [2] 95 % of control | [3] 91 % of control | [4] 101 % of control | [5] 98 % of control | [6] 97 % of control

C1CN2CCC1CC2
inactive: dose: 10.0 mg/kg/injection, schedule: Q01DX001 (ip), vehicle: saline 93 % of control | dose: 50.0 mg/kg/injection, schedule: Q01DX009 (ip), vehicle: saline with Tween-80 98 % of control | [7] 97 % of control | [8] 106 % of control | [9] 93 % of control

ClCCOCC1CO1 (stereo unspecified)
inactive: dose: 25.0 mg/kg/injection, schedule: Q04DX003 (ip), vehicle: saline 92 % of control | dose: 50.0 mg/kg/injection, schedule: Q04DX003 (ip), vehicle: saline 88 % of control | [2] 97 % of control

c1ccncc1
inactive: dose: 6.25 mg/kg/injection, schedule: Q01DX009 (ip), vehicle: alcohol 96 % of control | dose: 12.5 mg/kg/injection, schedule: Q01DX009 (ip), vehicle: alcohol 93 % of control | dose: 25.0 mg/kg/injection, schedule: Q01DX009 (ip), vehicle: alcohol 93 % of control | [10] 88 % of control | [1] 93 % of control | [11] 101 % of control | [2] 101 % of control | [3] 93 % of control | [12] 106 % of control | [4] 89 % of control | [5] 86 % of control | [13] 95 % of control | [6] 91 % of control

NNC(=O)Cc1csc2ccccc12
inactive: dose: 55.5 mg/kg/injection, schedule: Q01DX Z (ip), vehicle: carboxymethylcellulose (CMC) 102 % of control | dose: 83.3 mg/kg/injection, schedule: Q01DX Z (ip), vehicle: carboxymethylcellulose (CMC) 114 % of control | dose: 125.0 mg/kg/injection, schedule: Q01DX Z (ip), vehicle: carboxymethylcellulose (CMC) 119 % of control

CCCCCC1CCC(OC(C)=O)CC1 (stereo unspecified)
inactive: [14] 99 % of control | [11] 101 % of control | dose: 200.0 mg/kg/injection, schedule: Q01DX001 (ip), vehicle: Klucel (hydroxypropylcellulose) (HPC) 96 % of control | [12] 95 % of control | dose: 400.0 mg/kg/injection, schedule: Q01DX001 (ip), vehicle: Klucel (hydroxypropylcellulose) (HPC) 96 % of control | [13] 93 % of control

C1C2OC2CC2OC12 (stereo unspecified)
inactive: [7] 95 % of control | dose: 200.0 mg/kg/injection, schedule: Q01DX009 (ip), vehicle: saline with Tween-80 96 % of control | dose: 400.0 mg/kg/injection, schedule: Q01DX009 (ip), vehicle: saline with Tween-80 95 % of control

COc1ccccc1C(=O)N/N=C/c1ccc(O)cc1O
inactive: [10] 102 % of control | [15] 96 % of control | [16] 100 % of control

CC1(C)OC2COC(c3cc(C(N)=O)n[nH]3)C2O1 (stereo unspecified)
inactive: [8] 97 % of control | [9] 100 % of control | [17] 100 % of control

CCN(CC)C(=O)Sc1ccc(SC(=O)N(CC)CC)cc1
inactive: dose: 12.5 mg/kg/injection, schedule: Q04DX002 (ip), vehicle: saline with Tween-80 90 % of control | dose: 25.0 mg/kg/injection, schedule: Q04DX002 (ip), vehicle: saline with Tween-80 97 % of control | dose: 50.0 mg/kg/injection, schedule: Q04DX002 (ip), vehicle: saline with Tween-80 93 % of control | [8] 107 % of control | [9] 102 % of control | [17] 97 % of control

CCOC(=O)c1cnc(C)nc1Nc1ccccc1C
inactive: [11] 88 % of control | [12] 98 % of control | [13] 105 % of control

CCCCCCCCCCCCCCCCCC(=O)N/N=C/C=C/c1ccccc1
inactive: dose: 50.0 mg/kg/injection, schedule: Q01DX009 (ip), vehicle: Klucel (hydroxypropylcellulose) (HPC) 101 % of control | [10] 98 % of control | [15] 101 % of control and 91 % of control | [16] 100 % of control

CC(=O)OCCc1ccc(F)cc1
inactive: [18] 102 % of control | [19] 105 % of control | dose: 400.0 mg/kg/injection, schedule: Q04DX002 (ip), vehicle: saline 102 % of control

O=c1[nH]cnc2nc(/N=N/SCCO)[nH]c12
inactive: dose: 44.4 mg/kg/injection, schedule: Q01DX Z (ip), vehicle: methylcellulose (MC) 101 % of control | dose: 66.6 mg/kg/injection, schedule: Q01DX Z (ip), vehicle: methylcellulose (MC) 108 % of control | dose: 100.0 mg/kg/injection, schedule: Q01DX Z (ip), vehicle: methylcellulose (MC) 116 % of control | dose: 150.0 mg/kg/injection, schedule: Q01DX Z (ip), vehicle: methylcellulose (MC) 121 % of control

COc1ccc2c(ccc3nc(C)[nH]c(=O)c32)c1
inactive: [14] 91 % of control

S=P(CP(c1ccccc1)c1ccccc1)(c1ccccc1)c1ccccc1
inactive: dose: 100.0 mg/kg/injection, schedule: Q04DX002 (sc), vehicle: olive oil, sesame oil, peanut oil 100 % of control | dose: 200.0 mg/kg/injection, schedule: Q04DX002 (sc), vehicle: olive oil, sesame oil, peanut oil 107 % of control | dose: 400.0 mg/kg/injection, schedule: Q04DX002 (sc), vehicle: olive oil, sesame oil, peanut oil 104 % of control

OCCCC(O)CO (stereo unspecified)
inactive: dose: 222.0 mg/kg/injection, schedule: Q01DX Z (ip), vehicle: saline 98 % of control | dose: 333.0 mg/kg/injection, schedule: Q01DX Z (ip), vehicle: saline 111 % of control | dose: 500.0 mg/kg/injection, schedule: Q01DX Z (ip), vehicle: saline 102 % of control

Cc1ccc(C)n1Cc1ccccc1
inactive: dose: 100.0 mg/kg/injection, schedule: Q04DX003 (ip), vehicle: other 98 % of control | dose: 200.0 mg/kg/injection, schedule: Q04DX003 (ip), vehicle: other 98 % of control | dose: 400.0 mg/kg/injection, schedule: Q04DX003 (ip), vehicle: other 101 % of control

CC1(C)OC(C(O)COC(=O)c2ccc([N+](=O)[O-])cc2)C(C(SCc2ccccc2)SCc2ccccc2)O1 (stereo unspecified)
inactive: dose: 100.0 mg/kg/injection, schedule: Q01DX001 (ip), vehicle: carboxymethylcellulose (CMC) 93 % of control | dose: 200.0 mg/kg/injection, schedule: Q01DX001 (ip), vehicle: carboxymethylcellulose (CMC) 89 % of control | dose: 400.0 mg/kg/injection, schedule: Q01DX001 (ip), vehicle: carboxymethylcellulose (CMC) 95 % of control

CCOC(=O)C(C(=O)c1ccccc1)=P(c1ccccc1)(c1ccccc1)c1ccccc1
inactive: [11] 100 % of control | [12] 100 % of control | [13] 102 % of control

O=C1NC(c2ccccc2)(c2ccccc2)CN1CCO
inactive: dose: 100.0 mg/kg/injection, schedule: Q01DX001 (ip), vehicle: saline with Tween-80 95 % of control | dose: 200.0 mg/kg/injection, schedule: Q01DX001 (ip), vehicle: saline with Tween-80 95 % of control | dose: 400.0 mg/kg/injection, schedule: Q01DX001 (ip), vehicle: saline with Tween-80 93 % of control

N=C(N)C(N)=NCC(Br)CBr (stereo unspecified)
inactive: [18] 93 % of control | [19] 108 % of control

CN1CCC(=O)c2ccccc21
inactive: dose: 75.0 mg/kg/injection, schedule: Q01DX001 (ip), vehicle: other 97 % of control | dose: 150.0 mg/kg/injection, schedule: Q01DX001 (ip), vehicle: other 100 % of control | dose: 300.0 mg/kg/injection, schedule: Q01DX001 (ip), vehicle: other 100 % of control

CN=C(NC)c1cccc(NC(=O)c2ccc(C(=O)Nc3cccc(C(=NC)NC)c3)cc2)c1
inactive: dose: 1.2 mg/kg/injection, schedule: Q01DX Z (ip), vehicle: carboxymethylcellulose (CMC) 93 % of control | dose: 2.5 mg/kg/injection, schedule: Q01DX Z (ip), vehicle: carboxymethylcellulose (CMC) 96 % of control | dose: 5.0 mg/kg/injection, schedule: Q01DX Z (ip), vehicle: carboxymethylcellulose (CMC) 93 % of control | dose: 10.0 mg/kg/injection, schedule: Q01DX Z (ip), vehicle: carboxymethylcellulose (CMC) 100 % of control
